Measured values taken from patent US12024506B2, “Compounds” (Oxford University Innovation Limited, priority 2018, dated 2024).

Tested on: HT1080 cells
Assay: Cell viability assay 2 (CellTiterGlo), HT1080 cells
Format: cell-based
Conditions: Homo sapiens, HT-1080, cell line printed as HCT1080, 48 or 72 h
Protocol: Cancer cell lines were in seeded in ViewPlates-96 microplates (PerkinElmer). HT1080 cells at 7500 cells per well and cultured in DMEM, high glucose, GlutaMAX media containing 10% FBS at 37° C. in 5% CO2 atmosphere. Cells were cultured overnight and the compounds (dissolved in DMSO and diluted to 0.2% DMSO) were added to the cells at concentrations ranging from 0 to 20 μM. The cells were incubated under standard culture conditions for either 24, 48 or 72 h. Cell viability was as quantitated using the CellTiterGlo Luminescent Cell Viability Assay (Promega) according to the manufacturer's instructions to measure ATP generated by metabolically active cells. Luminescent signals were measured using an Envision 2103 Multilabel Microplate Reader (PerkinElmer). The luminescence signals obtained from the compound-treated cells were normalized against the signal for DMSO-only treated cells.

COc1nc(-c2cccc3c2OCCO3)ccc1Nc1ccc(CN(C)C)cc1 [compound 56, [6-(2,3-Dihydro-benzo[1,4]dioxin-5-yl)-2-methoxy-pyridin-3-yl]-(4-dimethylaminomethyl-phenyl)-amine]
IC50: 10 µM
